Values after ≈ are worked out from the molar mass of the structure shown. Values joined by “and” are separate entries in the source; they are usually repeats but may differ in a detail not shown here. Equal entries are not always repeated.
How the values were obtained:
[1] = system: KPC-expressing Enterobacteriaceae (n = 77); assay: organism not typed; assay type: cell-based; settings: for Number of strains at MIC value 0.5 mg/L / Number of strains at MIC value 1 mg/L / Number of strains at MIC value 2 mg/L / Number of strains at MIC value 4 mg/L / Number of strains at MIC value 8 mg/L / Number of strains at MIC value 16 mg/L / Number of strains at MIC value […] / Number of strains at MIC value ≤0.06 mg/L / Number of strains at MIC value ≥32 mg/L: KPC-expressing (n = 77); for MIC50 / MIC90: iv
[2] = system: AmpC/CMY-expressing Enterobacteriaceae (n = 44); assay: Broth microdilution MIC, ceftibuten/Compound 2 vs IV comparators; assay type: cell-based; settings: for Number of strains at MIC value 0.5 mg/L / Number of strains at MIC value 1 mg/L / Number of strains at MIC value 2 mg/L / Number of strains at MIC value 4 mg/L / Number of strains at MIC value 8 mg/L / Number of strains at MIC value 16 mg/L / Number of strains at MIC value […] / Number of strains at MIC value ≤0.06 mg/L / Number of strains at MIC value ≥32 mg/L: AmpC/CMY-expressing (n = 44); for MIC50 / MIC90: iv
[3] = system: ESBL-expressing Enterobacteriaceae (n = 33); assay: as above; assay type: cell-based; settings: for Number of strains at MIC value 0.5 mg/L / Number of strains at MIC value 1 mg/L / Number of strains at MIC value 2 mg/L / Number of strains at MIC value 4 mg/L / Number of strains at MIC value 8 mg/L / Number of strains at MIC value 16 mg/L / Number of strains at MIC value […] / Number of strains at MIC value ≤0.06 mg/L / Number of strains at MIC value ≥32 mg/L: ESBL-expressing (n = 33); for MIC50 / MIC90: iv
[4] = system: OXA-48-expressing Enterobacteriaceae (n = 39); assay: as above

SMILES	Number of strains at MIC value 0.5 mg/L [1]	Number of strains at MIC value 1 mg/L [1]	Number of strains at MIC value 2 mg/L [1]	Number of strains at MIC value 4 mg/L [1]	Number of strains at MIC value 8 mg/L [1]	Number of strains at MIC value 16 mg/L [1]	Number of strains at MIC value […] [1]	Number of strains at MIC value ≤0.06 mg/L [1]	Number of strains at MIC value ≥32 mg/L [1]	MIC50 [1] [µg/mL]	MIC90 [1] [µg/mL]	Number of strains at MIC value 0.5 mg/L [2]	Number of strains at MIC value 1 mg/L [2]	Number of strains at MIC value 2 mg/L [2]	Number of strains at MIC value 4 mg/L [2]	Number of strains at MIC value 8 mg/L [2]	Number of strains at MIC value 16 mg/L [2]	Number of strains at MIC value […] [2]	Number of strains at MIC value ≤0.06 mg/L [2]	Number of strains at MIC value ≥32 mg/L [2]	further results
CN(C)c1cc(NC(=O)CNC(C)(C)C)c(O)c2c1C[C@H]1C[C@H]3[C@H](N(C)C)C(O)=C(C(N)=O)C(=O)[C@@]3(O)C(O)=C1C2=O [Tigecycline]	19	34	15	5	0	0	0 and 4	0	0	1 (≈ 1.71 µM)	2 (≈ 3.41 µM)	8	10	10	4	2	0	4 and 6	0	0	MIC50 [2]: 1 µg/mL (≈ 1.71 µM); MIC90 [2]: 4 µg/mL (≈ 6.83 µM); Number of strains at MIC value 0.5 mg/L [3]: 11; Number of strains at MIC value 1 mg/L [3]: 3; Number of strains at MIC value 2 mg/L [3]: 3; Number of strains at MIC value 4 mg/L [3]: 2; Number of strains at MIC value 8 mg/L [3]: 0; Number of strains at MIC value 16 mg/L [3]: 0; Number of strains at MIC value […] [3]: 4 and 10; Number of strains at MIC value ≤0.06 mg/L [3]: 0; Number of strains at MIC value ≥32 mg/L [3]: 0; MIC50 [3]: 0.5 µg/mL (≈ 0.854 µM); MIC90 [3]: 2 µg/mL (≈ 3.41 µM); MIC50 [4]: 0.5 µg/mL (≈ 0.854 µM); MIC90 [4]: 2 µg/mL (≈ 3.41 µM)
NC[C@H]1O[C@H](O[C@H]2[C@H](O)[C@@H](O[C@H]3O[C@H](CO)[C@@H](O)[C@H](N)[C@H]3O)[C@H](N)C[C@@H]2N)[C@H](N)C[C@@H]1O [Tobramycin]	3	0	2	0	3	3	0 and 1	0	65	≥ 32	≥ 32	2	2	0	3	3	6	0	0	28	MIC50 [2]: ≥ 32 µg/mL; MIC90 [2]: ≥ 32 µg/mL; Number of strains at MIC value 0.5 mg/L [3]: 3; Number of strains at MIC value 1 mg/L [3]: 5; Number of strains at MIC value 2 mg/L [3]: 2; Number of strains at MIC value 4 mg/L [3]: 1; Number of strains at MIC value 8 mg/L [3]: 1; Number of strains at MIC value 16 mg/L [3]: 4; Number of strains at MIC value […] [3]: 0; Number of strains at MIC value ≤0.06 mg/L [3]: 0; Number of strains at MIC value ≥32 mg/L [3]: 17; MIC50 [3]: ≥ 32 µg/mL; MIC90 [3]: ≥ 32 µg/mL; MIC50 [4]: 16 µg/mL (≈ 34.2 µM); MIC90 [4]: ≥ 32 µg/mL
